The record followed here is patent US10947252B2, “Inhibitors of KEAP1-Nrf2 protein-protein interaction” (Janssen Pharmaceutica NV, priority 2018, dated 2021).

A word on the EC50: it is the midpoint of the concentration-response curve. A high value points to a need for much substance.

In the first assay the test system is Glo-Response ARE-luc2P HEK293 cell line. Briefly: ARE luciferase reporter cell-based assay.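 Also: luciferase signal tracks Nrf2 activation of the ARE once compounds disrupt KEAP1-Nrf2 binding, read with One-Glo reagent, DMSO serving as low control.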 As to conditions: 24 hours, average of results obtained.
`Cc1ccc(C(c2ccn3c(C(F)(F)F)nnc3c2C)C(C)C(=O)O)cc1CN1C[C@@H]2CCCCN2c2ncccc2S1(=O)=O` (stereo in doubt) [Example 129, 3-(3-(((*S)-5,5-Dioxido-7,7a,8,9,10,11-hexahydro-6H-dipyrido[2,1-d:2′,3′-f][1,2,5]thiadiazepin-6-yl)methyl)-4-methylphenyl)-2-methyl-3-(8-methyl-3-(trifluoromethyl)-[1,2,4]triazolo[4,3-a]pyridine-7-yl)propanoic Acid] registered a 50% effective concentration (EC50) of 6.8 nM.

Staying with this assay, now noted: Homo sapiens, HEK293, 24 h, average of results obtained.
As for `Cc1ccc([C@@H](c2ccn3c(C(F)F)nnc3c2C)C(C)(C)C(=O)O)cc1CN1CC2(CC2)Oc2ncccc2S1(=O)=O` (single isomer, unassigned) [Example 567, (*S)-3-(3-(Difluoromethyl)-8-methyl-[1,2,4]triazolo[4,3-a]pyridin-7-yl)-3-(3-((1′,1′-dioxidospiro[cyclopropane-1,4′-pyrido[2,3-b][1,4,5]oxathiazepin]-2′(3′H)-yl)methyl)-4-methylphenyl)-2,2-dimethylpropanoic Acid], the EC50 came out at 2.6 nM.

As to `Cc1ccc([C@H](c2ccn3c(C(F)F)nnc3c2C)C(C)(C)C(=O)O)cc1CN1CC2(CC2)Oc2ncccc2S1(=O)=O` (single isomer, unassigned) [Example 568, (*R)-3-(3-(Difluoromethyl)-8-methyl-[1,2,4]triazolo[4,3-a]pyridin-7-yl)-3-(3-((1′,1′-dioxidospiro[cyclopropane-1,4′-pyrido[2,3-b][1,4,5]oxathiazepin]-2′(3′H)-yl)methyl)-4-methylphenyl)-2,2-dimethylpropanoic Acid], the EC50 was 192 nM.

In the case of `Cc1cnc([C@H](c2ccn3c(C(F)F)nnc3c2C)C(C)(C)C(=O)O)cc1CN1CC2(CC2)Oc2nc(OCCN3CCCCC3)c(C)cc2S1(=O)=O` (single isomer, unassigned) [Example 637, (*R)-3-(3-(Difluoromethyl)-8-methyl-[1,2,4]triazolo[4,3-a]pyridin-7-yl)-2,2-dimethyl-3-(5-methyl-4-((8′-methyl-1′,1′-dioxido-7′-(2-(piperidin-1-yl)ethoxy)spiro[cyclopropane-1,4′-pyrido[2,3-b][1,4,5]oxathiazepin]-2′(3′H)-yl)methyl)pyridin-2-yl)propanoic Acid], the response was half-maximal at 615 nM (EC50). This EC50 is about 3.2-fold higher than that of the compound before.

Turning to `Cc1cnc([C@H](c2ccn3c(C(F)F)nnc3c2C)C(C)(C)C(=O)O)cc1CN1CC2(CCOCC2)Oc2nc(OCCN3CCCCC3)c(C)cc2S1(=O)=O` (single isomer, unassigned) [Example 641, (*R)-3-(3-(Difluoromethyl)-8-methyl-[1,2,4]triazolo[4,3-a]pyridin-7-yl)-2,2-dimethyl-3-(5-methyl-4-((8′-methyl-1′,1′-dioxido-7′-(2-(piperidin-1-yl)ethoxy)-2,3,5,6-tetrahydrospiro[pyran-4,4′-pyrido[2,3-b][1,4,5]oxathiazepin]-2′(3′H)-yl)methyl)pyridin-2-yl)propanoic Acid], the EC50 was 2290 nM.

Compound `Cc1cnc2c(c1)S(=O)(=O)N(Cc1cc([C@@H](c3ccc4c(nnn4C4CC4)c3C)C(C)(C)C(=O)O)ccc1C)CC1(CNC1)O2` (single isomer, unassigned) [Example 646, (*S)-3-(1-Cyclopropyl-4-methyl-1H-benzo[d][1,2,3]triazol-5-yl)-2,2-dimethyl-3-(4-methyl-3-((8′-methyl-1′,1′-dioxidospiro[azetidine-3,4′-pyrido[2,3-b][1,4,5]oxathiazepin]-2′(3′H)-yl)methyl)phenyl)propanoic Acid] showed an EC50 of 66.7 nM.

`Cc1ccc([C@@H](c2ccc3c(nnn3C3CC3)c2C)C(C)(C)C(=O)O)cc1CN1CC2(CCNCC2)Oc2ncccc2S1(=O)=O` (single isomer, unassigned) [Example 648, (*S)-3-(1-Cyclopropyl-4-methyl-1H-benzo[d][1,2,3]triazol-5-yl)-3-(3-((1′,1′-dioxidospiro[piperidine-4,4′-pyrido[2,3-b][1,4,5]oxathiazepin]-2′(3′H)-yl)methyl)-4-methylphenyl)-2,2-dimethylpropanoic Acid] showed an EC50 of 1350 nM.

With `Cc1cnc2c(c1)S(=O)(=O)N(Cc1cc([C@@H](CC(=O)O)c3ccn4c(C(F)(F)F)nnc4c3C)ccc1Cl)CC1CCCCN21` (stereo in doubt) [Example 90, (*R)-3-(4-Chloro-3-(((*S)-3-methyl-5,5-dioxido-7,7a,8,9,10,11-hexahydro-6H-dipyrido[2,1-d:2′,3′-f][1,2,5]thiadiazepin-6-yl)methyl)phenyl)-3-(8-methyl-3-(trifluoromethyl)-[1,2,4]triazolo[4,3-a]pyridine-7-yl)propanoic Acid], the EC50 came out at 4.2 nM.

In turn, `Cc1cnc2c(c1)S(=O)(=O)N(Cc1cc([C@H](CC(=O)O)c3ccn4c(C(F)F)nnc4c3C)ccc1C)C[C@@H]1CCCCN21` (stereo in doubt) [Example 500, (*S)-3-(3-(Difluoromethyl)-8-methyl-[1,2,4]triazolo[4,3-a]pyridin-7-yl)-3-(4-methyl-3-(((*S)-3-methyl-5,5-dioxido-7,7a,8,9,10,11-hexahydro-6H-dipyrido[2,1-d:2′,3′-f][1,2,5]thiadiazepin-6-yl)methyl)phenyl)propanoic Acid] returned an EC50 of 6.55 nM. Against the preceding compound, the EC50 is about 1.6-fold higher.

As for `Cc1cnc2c(c1)S(=O)(=O)N(Cc1cc([C@@H](CC(=O)O)c3ccn4c(C(F)F)nnc4c3C)ccc1C)C[C@@H]1CCCCN21` (stereo in doubt) [Example 501, (*R)-3-(3-(Difluoromethyl)-8-methyl-[1,2,4]triazolo[4,3-a]pyridin-7-yl)-3-(4-methyl-3-(((*S)-3-methyl-5,5-dioxido-7,7a,8,9,10,11-hexahydro-6H-dipyrido[2,1-d:2′,3′-f][1,2,5]thiadiazepin-6-yl)methyl)phenyl)propanoic Acid], the EC50 amounted to 34.5 nM.

`Cc1cnc2c(c1)S(=O)(=O)N(Cc1cc(C(CC(=O)O)c3ccn4c(C(F)F)nnc4c3C)ccc1C)C[C@H]1CCCCN21` (stereo in doubt) [Example 502, 3-(3-(Difluoromethyl)-8-methyl-[1,2,4]triazolo[4,3-a]pyridin-7-yl)-3-(4-methyl-3-(((*R)-3-methyl-5,5-dioxido-7,7a,8,9,10,11-hexahydro-6H-dipyrido[2,1-d:2′,3′-f][1,2,5]thiadiazepin-6-yl)methyl)phenyl)propanoic Acid] registered an EC50 of 3.92 nM.

With `Cc1cnc2c(c1)S(=O)(=O)N(Cc1cc([C@H](CC(=O)O)c3ccn4c(C(F)F)nnc4c3C)ccc1C)C[C@H]1CCCCN21` (stereo in doubt) [Example 503, (*S)-3-(3-(Difluoromethyl)-8-methyl-[1,2,4]triazolo[4,3-a]pyridin-7-yl)-3-(4-methyl-3-(((*R)-3-methyl-5,5-dioxido-7,7a,8,9,10,11-hexahydro-6H-dipyrido[2,1-d:2′,3′-f][1,2,5]thiadiazepin-6-yl)methyl)phenyl)propanoic Acid], the EC50 was found to be 2.58 nM. Compared with the last compound, the EC50 is about 1.5-fold lower.

Compound `Cc1cnc2c(c1)S(=O)(=O)N(Cc1cc([C@@H](CC(=O)O)c3ccn4c(C(F)F)nnc4c3C)ccc1C)C[C@H]1CCCCN21` (stereo in doubt) [Example 504, (*R)-3-(3-(Difluoromethyl)-8-methyl-[1,2,4]triazolo[4,3-a]pyridin-7-yl)-3-(4-methyl-3-(((*R)-3-methyl-5,5-dioxido-7,7a,8,9,10,11-hexahydro-6H-dipyrido[2,1-d:2′,3′-f][1,2,5]thiadiazepin-6-yl)methyl)phenyl)propanoic Acid] gave an EC50 of 7.22 nM.

The compound `CCn1nnc2c(C)c(C(c3ccc(C)c(CN4CC5(CCOCC5)Oc5ncccc5S4(=O)=O)c3)C(C)(C)C(=O)O)ccc21` (centres unmarked) [Example 14, 3-(3-((1′,1′-Dioxido-2,3,5,6-tetrahydrospiro[pyran-4,4′-pyrido[2,3-b][1,4,5]oxathiazepin]-2′(3′H)-yl)methyl)-4-methylphenyl)-3-(1-ethyl-4-methyl-1H-benzo[d][1,2,3]triazol-5-yl)-2,2-dimethylpropanoic Acid] displayed an EC50 of 0.7 nM.

`Cc1cnc2c(c1)S(=O)(=O)N(Cc1cc(C(c3ccn4c(C(F)(F)F)nnc4c3C)C(C)(C)C(=O)O)ccc1C)CC1(CCOCC1)O2` (centres unmarked) [Example 17, 2,2-Dimethyl-3-(4-methyl-3-((8′-methyl-1′,1′-dioxido-2,3,5,6-tetrahydrospiro[pyran-4,4′-pyrido[2,3-b][1,4,5]oxathiazepin]-2′(3′H)-yl)methyl)phenyl)-3-(8-methyl-3-(trifluoromethyl)-[1,2,4]triazolo[4,3-a]pyridin-7-yl)propanoic Acid] displayed an EC50 of 3.6 nM. This EC50 is about 5.1-fold higher than that of the compound before.

The compound `Cc1c(C(CC(=O)O)c2ccc(Cl)c(CN3CC4(COC4)Oc4ccccc4S3(=O)=O)c2)ccn2c(C(F)(F)F)nnc12` (centres unmarked) [Example 95] displayed an EC50 of 1080 nM. Compared with the last compound, the EC50 is about 300-fold higher.

For `Cc1ccc(C(c2ccn3c(C(F)(F)F)nnc3c2C)C(C)(C)C(=O)O)cc1CN1CC2(CCOCC2)Oc2nc(NCCCO)ccc2S1(=O)=O` (centres unmarked) [Example 114], the EC50 amounted to 145 nM. This EC50 is about 7.4-fold lower than that of the compound before.

`Cc1cnc2c(c1)S(=O)(=O)N(Cc1cc(C(c3ccn4c(C(F)(F)F)nnc4c3C)C(C)(C)C(=O)O)ccc1C)CC1(CC1)O2` (centres unmarked) [Example 313, 2,2-Dimethyl-3-(4-methyl-3-((8′-methyl-1′,1′-dioxidospiro[cyclopropane-1,4′-pyrido[2,3-b][1,4,5]oxathiazepin]-2′(3′H)-yl)methyl)phenyl)-3-(8-methyl-3-(trifluoromethyl)-[1,2,4]triazolo[4,3-a]pyridin-7-yl)propanoic Acid] registered an EC50 of 1.1 nM.

`Cc1ccc(C(c2ccn3c(C(F)(F)F)nnc3c2C)C(C)(C)C(=O)O)cc1CN1CC2(CC2)Oc2ncccc2S1(=O)=O` (centres unmarked) [Example 316, 3-(3-((1′,1′-Dioxidospiro[cyclopropane-1,4′-pyrido[2,3-b][1,4,5]oxathiazepin]-2′(3′H)-yl)methyl)-4-methylphenyl)-2,2-dimethyl-3-(8-methyl-3-(trifluoromethyl)-[1,2,4]triazolo[4,3-a]pyridin-7-yl)propanoic Acid] came in with an EC50 of 1.3 nM.

For `Cc1ccc(C(c2ccn3c(C(F)(F)F)nnc3c2)C(C)(C)C(=O)O)cc1CN1CC2(CCOCC2)Oc2ncccc2S1(=O)=O` (centres unmarked) [Example 319, 3-(3-((1′,1′-Dioxido-2,3,5,6-tetrahydrospiro[pyran-4,4′-pyrido[2,3-b][1,4,5]oxathiazepin]-2′(3′H)-yl)methyl)-4-methylphenyl)-2,2-dimethyl-3-(3-(trifluoromethyl)-[1,2,4]triazolo[4,3-a]pyridin-7-yl)propanoic Acid], the EC50 stood at 44.5 nM.
